Measured values published in patent US11433068B2, “Treatment of cancers having alterations within the SWI/SNF chromatin remodeling complex” (THE GENERAL HOSPITAL CORPORATION, priority 2016, dated 2022).

Columns and labels:
[1] = tested on: ARID2-deficient cells; assay: Selective susceptibility of ARID2-knockdown melanoma lines to G9a inhibitors (FIG. 3); format: cell-based; settings: ARID2-knockdown of two different melanoma lines
[2] = tested on: ARID2-deficient melanomas UACC62 cells; assay: Quantification of cell number using crystal violet staining (FIGS. 4A, 4B); format: cell-based
[3] = tested on: melanoma cell lines (n=22); assay: LD50 of melanoma cell lines versus ARID2 mutational status (FIGS. 5A, 5B); format: cell-based; settings: 22 melanoma cell lines; ARID2 mutant vs other lines
Description: LD50 value of each melanoma cell line plotted for the two G9a inhibitors UNC0638 and BIX-01294. (n=22). ARID2 mutant cell lines indicated in closed circles.

[4] = tested on: H3K9; assay: Histone western blot of cells treated with G9a inhibitors (FIGS. 6A, 6B); format: cell-based; settings: UACC257 cell line
Description: (§1) The G9a and EZH2 methyltransferases are known to target H3K9 and H3K27, respectively.

[5] = tested on: ARID2-deficient cell lines; assay: Combination therapy heatmaps, cell viability, isogenically matched engineered melanoma lines (FIG. 8); format: cell-based; settings: ARID2-deficient vs matched lines
Description: FIG. 8 summarizes the combination therapy on isogenically matched engineered ARID-deficient melanoma cell lines. Heatmaps showing cell viability after treatment with the G9a inhibitor BIX-01294 in combination with other small molecule inhibitors (bromodomain inhibitor JQ1 and BRAF inhibitor PLX).

[6] = tested on: ARID-deficient LOX-IMVI cell line; assay: Combination therapy heatmaps, cell viability, endogenous ARID-deficient melanoma lines (FIG. 9); format: cell-based; settings: G9a inhibitor in combination with HDAC inhibitor SAHA; LOX-IMVI compared to ARID wildtype A375
Description: FIG. 9 summarizes the combination therapy on endogenous ARID-deficient melanoma cell lines.

[7] = tested on: melanoma cell and melanocyte; assay: Viability by cell-titer Glo assay (FIGS. 14A, 14B); format: cell-based; settings: varying amounts; melanoma cells and melanocytes
Method: FIGS. 14A and 14B show melanoma cell and melanocyte are sensitive to G9a inhibitors. Indicated cell types were treated with varying amounts of (FIG. 14A) UNC0638 or (FIG. 14B) BIX01294 and viability was measured by cell-titer Glo assay.

[8] = tested on: H3K27; assay: Histone western blot of cells treated with EZH2 inhibitors (FIGS. 6A, 6B); format: cell-based; settings: UACC257 cell line
Description: as §1

[9] = tested on: UACC257 human melanoma cells with ARID2 deficiency; assay: Dose response of melanoma cells to the G9a inhibitor (FIG. 2); format: cell-based; settings: UACC257 shARID2 knockdown vs isogenically matched control (shLuc) cells
Method: ARID2 deficiency is simulated the cells using an RNAi shARID2 to knockdown expression of ARID2. For control, the same cell lines are treated with a control RNAi shLuc instead of shARID2.

[10] = tested on: G9a-amplified melanoma cell line, K029; assay: Tumor growth of subcutaneously inoculated K029 cells in SCID mice (FIG. 16); format: in vivo; settings: K029 subcutaneous in SCID mice; 2.5 mg/kg daily ip from 8 days after inoculation
Method: G9a-amplified melanoma cell line, K029, was subcutaneously inoculated on SCID mice (5×10^6 cells/[…] PBS). Vehicle (10% DMSO/PBS) or UNC0642 (2.5 mg/kg) was daily administrated by ip injection 8 days after K029 inoculation.

[11] = BIX-01294 in combination with bromodomain inhibitor JQ1

Row | SMILES | sensitivity of ARID2-knockdown cells to G9a inhibitors [1] | cell number (crystal violet staining) [2] | sensitivity (LD50) versus ARID2 mutation [3] | methylation marks at H3K9 (histone western blot) [4] | drug synergy (cell viability) [5, 11] | drug synergy (cell viability) [6] | viability (cell-titer Glo) [7] | also measured
1 | COc1cc2nc(N3CCCN(C)CC3)nc(NC3CCN(Cc4ccccc4)CC3)c2cc1OC [BIX-01294] | sensitive | selective vulnerability | ARID2 mutation predicts the sensitivity | selective and specific decrease in the methylation marks | selectively enhanced | selectively enhanced | sensitive | drug synergy (cell viability) ([5]; BIX-01294 in combination with BRAF inhibitor PLX): selectively enhanced
2 | CC[C@H](C)n1cc(C)c2c(C(=O)NCc3c(C)cc(C)[nH]c3=O)cc(-c3ccc(N4CCNCC4)nc3)cc21 [GSK126] |  |  |  |  |  |  |  | methylation marks at H3K27 (histone western blot) [8]: selective and specific decrease in the methylation marks
3 | Cc1sc2c(c1C)C(c1ccc(Cl)cc1)=N[C@@H](CC(=O)OC(C)(C)C)c1nnc(C)n1-2 [JQ1] |  |  |  |  | selectively enhanced |  |  | 
4 | O=C(CCCCCCC(=O)Nc1ccccc1)NO [SAHA, suberoylanilide hydroxamic acid] |  |  |  |  |  | selectively enhanced |  | 
5 | COc1cc2c(NC3CCN(C(C)C)CC3)nc(C3CCCCC3)nc2cc1OCCCN1CCCC1 [UNC0638] | sensitive | selective vulnerability | ARID2 mutation predicts the sensitivity | selective and specific decrease in the methylation marks |  | selectively enhanced | sensitive | susceptibility to the G9a inhibitor (dose response) [9]: more susceptible
6 | COc1cc2c(NC3CCN(C(C)C)CC3)nc(N3CCC(F)(F)CC3)nc2cc1OCCCN1CCCC1 [UNC0642] |  |  |  |  |  |  |  | tumor growth [10]: effectively suppress tumor growth
